What was measured:
[1] = Stability of 188Re(I)-tricarbonyl precursor over time (HPLC); assay type: physicochemical; settings: for 3 hours, then began to decay
Method: The HPLC measurement was conducted in order to separate the ^188Re (I)-tricarbonyl precursor synthesized in Embodiment 1.
The HPLC measurement was carried out with a WATERS system provided with a radiometric detector using methanol (hereinafter, referred to as ‘solvent A’) and 0.05 M triethylammoniumphosphate buffer (TEAP, pH 2.25, hereinafter referred to as ‘solvent B’) using two pumps each equipped with a reverse phase Xterra™ RP18 5 μm column (4.6×250 mm, Waters, Ireland).
The solvent conditions for HPLC were as follows: in the range of 0 to 5 minutes, 100% solvent A began to flow and was then converted into 100% solvent B; in the range of 5 to 8 minutes, 100% solvent B began to flow and was then converted into 25% solvent A and 75% solvent B; in the range of 8 to 11 minutes, 25% solvent A and 75% solvent B were converted into 34% solvent A and 66% solvent B; in the range of 11 to 22 minutes, 34% solvent A and 66% solvent B were converted into 100% solvent A; and in the range of 22 to 24 minutes, 100% solvent A was converted into 100% solvent B. The flow rate of solvent was maintained at 1 ml/min for the entire time. In addition, in order to rapidly bring the column to a state of equilibrium, during the next 5 min, the solvent was supplied at 2 ml/min for 2 minnutes and then at the former solvent flow rate for 3 min. […]

[2] = assay type: in vitro ADME, human
Method: The ^188Re-tricarbonyl histidine complex prepared in Embodiment 2 was dissolved in physiological saline to prepare 37 MBq/ml of a test solution. Of this solution, 25 μl of the solution was added to 475 μl of human plasma (sigma) and then cultured at 37° C. for 24 hours. After the lapse of 0.5, 1, 2, 4 and 24 hours, the fraction of solution was subjected to TLC measurement. As a development solvent, a solvent mixture comprising methanol and conc. hydrochloric acid mixed at a 99:1 ratio was used.
When the fraction of solution was developed, the labeled complex was shown in the developed portion, and the complex reacted with the plasma protein was shown in the zero point, which were confirmed through HPLC. The HPLC measurement was conducted in the same manner as in Experimental Example 2. In addition, the plasma protein binding was measured using an ITLC isotope scanner.

Substance	fraction of precursor stable [1]	plasma stability (in words) [2]
^188Re-tricarbonyl precursor [^188Re (I)-tricarbonyl precursor]	≥ 95%	–
^188Re (I)-tricarbonyl histidine complex [^188Re-tricarbonyl histidine complex]	–	high plasma stability
